Data: ChEMBL document CHEMBL1201862, “PubChem BioAssay data set” (2004)
The source made the active and inactive calls.

Columns and labels:
[1] = intracellular Trypanosoma cruzi inhibitors in host cells – cell-based, plate reader, cherry-pick samples, set 3, dose response (AID 651818); assay type: functional;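 further: compounds incubated with infected cells for about four days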
[2] = tested on: Vero; assay: cells; assay type: functional; settings: Chlorocebus sabaeus
[3] = molecular target: DNA dC->dU-editing enzyme APOBEC-3G (Homo sapiens, UniProt Q9HC16); assay type: functional;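 further: Dose-response counterscreen measuring inhibition of APOBEC3G DNA deaminase activity, run while confirming APOBEC3A inhibitors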
Chain of DNA dC->dU-editing enzyme APOBEC-3G (Q9HC16 whole entry): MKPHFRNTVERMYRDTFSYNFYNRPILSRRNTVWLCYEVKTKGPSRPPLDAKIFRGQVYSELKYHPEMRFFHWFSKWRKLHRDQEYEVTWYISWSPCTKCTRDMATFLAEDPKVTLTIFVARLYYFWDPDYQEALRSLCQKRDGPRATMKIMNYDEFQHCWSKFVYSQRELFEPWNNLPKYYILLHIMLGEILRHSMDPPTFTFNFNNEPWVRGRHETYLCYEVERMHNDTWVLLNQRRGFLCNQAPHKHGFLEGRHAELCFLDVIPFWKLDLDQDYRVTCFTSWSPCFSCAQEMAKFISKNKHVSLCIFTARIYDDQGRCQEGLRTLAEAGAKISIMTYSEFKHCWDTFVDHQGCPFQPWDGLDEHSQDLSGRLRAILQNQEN

[4] = molecular target: DNA dC->dU-editing enzyme APOBEC-3A (Homo sapiens, UniProt P31941); assay: Dose Response confirmation of small molecule APOBEC3A DNA Deaminase Inhibitors via a fluorescence-based single-stranded DNA deaminase assay. [Related pubchem assays (depositor defined):AID493011, AID493024]; assay type: functional
Chain of DNA dC->dU-editing enzyme APOBEC-3A (P31941 whole entry): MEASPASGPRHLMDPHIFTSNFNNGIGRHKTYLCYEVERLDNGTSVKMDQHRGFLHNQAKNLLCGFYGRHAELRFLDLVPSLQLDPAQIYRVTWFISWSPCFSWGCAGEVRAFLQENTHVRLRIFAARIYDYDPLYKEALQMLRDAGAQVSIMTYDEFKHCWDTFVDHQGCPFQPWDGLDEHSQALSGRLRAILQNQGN

[5] = molecular target: Cytochrome P450 2C9 (Homo sapiens, UniProt P11712)
Chain of Cytochrome P450 2C9 (P11712 whole entry): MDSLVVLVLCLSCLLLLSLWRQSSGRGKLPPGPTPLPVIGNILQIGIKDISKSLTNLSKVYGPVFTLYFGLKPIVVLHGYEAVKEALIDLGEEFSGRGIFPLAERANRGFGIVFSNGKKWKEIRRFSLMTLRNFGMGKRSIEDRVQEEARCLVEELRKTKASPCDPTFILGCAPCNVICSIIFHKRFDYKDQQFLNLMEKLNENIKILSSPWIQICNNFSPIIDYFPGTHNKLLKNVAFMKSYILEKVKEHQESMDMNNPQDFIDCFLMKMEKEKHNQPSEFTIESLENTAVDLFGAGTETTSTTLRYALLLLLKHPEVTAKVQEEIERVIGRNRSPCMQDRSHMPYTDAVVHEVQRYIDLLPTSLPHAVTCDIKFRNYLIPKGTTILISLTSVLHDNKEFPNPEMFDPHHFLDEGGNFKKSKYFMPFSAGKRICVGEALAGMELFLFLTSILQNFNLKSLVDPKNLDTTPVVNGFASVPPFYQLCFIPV

[6] = molecular target: T1, Heat shock factor protein 1 (Mus musculus, UniProt P38532); assay: enhancement of HSF1-driven luciferase signal – cell-based, NIH3T3, luminescence, dose retest, confirmation (AID 435004); assay type: functional;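 further: stress induced by proteasome inhibitor MG132 added 30 min after compound; luciferase reporter driven by HSF1 response element in NIH3T3 cells; actives raise luminescence as potentiators of the MG132 stress response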
T1 sequence (P38532 whole entry): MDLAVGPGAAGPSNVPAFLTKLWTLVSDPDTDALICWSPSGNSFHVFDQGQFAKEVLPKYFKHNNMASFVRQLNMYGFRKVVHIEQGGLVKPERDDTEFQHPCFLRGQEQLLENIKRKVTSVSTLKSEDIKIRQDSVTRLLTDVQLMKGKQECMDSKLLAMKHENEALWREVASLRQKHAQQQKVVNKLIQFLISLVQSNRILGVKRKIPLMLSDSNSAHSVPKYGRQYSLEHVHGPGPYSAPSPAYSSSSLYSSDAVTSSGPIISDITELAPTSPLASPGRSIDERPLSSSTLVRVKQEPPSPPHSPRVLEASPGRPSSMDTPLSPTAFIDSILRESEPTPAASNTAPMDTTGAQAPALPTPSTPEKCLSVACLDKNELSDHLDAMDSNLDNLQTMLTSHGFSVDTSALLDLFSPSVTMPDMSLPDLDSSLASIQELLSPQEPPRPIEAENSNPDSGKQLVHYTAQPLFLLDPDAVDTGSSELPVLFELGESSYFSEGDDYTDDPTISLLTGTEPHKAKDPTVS

[7] = molecular target: T2, Cytochrome P450 1A2 (Homo sapiens, UniProt P05177);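 further: PubChem cytochrome P450 panel assay, CYP1A2 panel member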
T2 sequence (P05177 whole entry): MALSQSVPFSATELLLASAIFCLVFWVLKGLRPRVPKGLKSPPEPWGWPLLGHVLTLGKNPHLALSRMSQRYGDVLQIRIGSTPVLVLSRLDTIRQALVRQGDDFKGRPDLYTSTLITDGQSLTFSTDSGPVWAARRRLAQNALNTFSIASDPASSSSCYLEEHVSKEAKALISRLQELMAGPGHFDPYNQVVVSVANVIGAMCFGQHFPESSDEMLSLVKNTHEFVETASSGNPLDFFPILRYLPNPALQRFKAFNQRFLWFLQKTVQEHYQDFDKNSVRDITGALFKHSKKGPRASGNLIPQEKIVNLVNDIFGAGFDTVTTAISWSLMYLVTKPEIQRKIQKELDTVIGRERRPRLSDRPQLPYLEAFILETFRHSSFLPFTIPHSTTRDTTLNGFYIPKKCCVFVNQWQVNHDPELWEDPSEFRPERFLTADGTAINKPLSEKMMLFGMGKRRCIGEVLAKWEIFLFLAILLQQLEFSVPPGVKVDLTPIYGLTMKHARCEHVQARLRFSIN

[8] = molecular target: Cytochrome P450 3A4 (Homo sapiens, UniProt P08684);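 further: CYP3A4 tested as one member of a cytochrome P450 panel screen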
Chain of Cytochrome P450 3A4 (P08684 whole entry): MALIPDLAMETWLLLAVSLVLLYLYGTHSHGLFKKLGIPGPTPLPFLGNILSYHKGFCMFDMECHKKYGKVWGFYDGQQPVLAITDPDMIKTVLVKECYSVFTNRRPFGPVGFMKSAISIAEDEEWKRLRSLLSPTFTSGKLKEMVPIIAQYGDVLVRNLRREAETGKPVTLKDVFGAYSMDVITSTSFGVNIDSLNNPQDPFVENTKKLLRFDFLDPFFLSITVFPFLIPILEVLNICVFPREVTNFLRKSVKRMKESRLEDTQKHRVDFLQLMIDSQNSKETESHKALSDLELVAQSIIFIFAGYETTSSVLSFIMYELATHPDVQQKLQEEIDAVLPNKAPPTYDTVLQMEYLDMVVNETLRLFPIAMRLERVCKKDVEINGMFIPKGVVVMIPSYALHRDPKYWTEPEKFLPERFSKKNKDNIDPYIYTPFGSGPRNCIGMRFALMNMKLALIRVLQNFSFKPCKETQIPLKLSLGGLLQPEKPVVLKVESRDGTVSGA

[9] = tested on: P388/ADR; assay: cells; assay type: functional; settings: Mus musculus
[10] = tested on: SN12K1; assay: cells; assay type: functional; settings: Homo sapiens
[11] = tested on: P388; assay: cells; assay type: functional; settings: Mus musculus
[12] = molecular target: Cytochrome P450 2C19 (Homo sapiens, UniProt P33261); assay: Cytochrome panel assay with activity outcomes. Panel member name: p450-cyp2c19 Compounds with AC50 equal or less than 10 uM are considered active; assay type: functional
Chain of Cytochrome P450 2C19 (P33261 whole entry): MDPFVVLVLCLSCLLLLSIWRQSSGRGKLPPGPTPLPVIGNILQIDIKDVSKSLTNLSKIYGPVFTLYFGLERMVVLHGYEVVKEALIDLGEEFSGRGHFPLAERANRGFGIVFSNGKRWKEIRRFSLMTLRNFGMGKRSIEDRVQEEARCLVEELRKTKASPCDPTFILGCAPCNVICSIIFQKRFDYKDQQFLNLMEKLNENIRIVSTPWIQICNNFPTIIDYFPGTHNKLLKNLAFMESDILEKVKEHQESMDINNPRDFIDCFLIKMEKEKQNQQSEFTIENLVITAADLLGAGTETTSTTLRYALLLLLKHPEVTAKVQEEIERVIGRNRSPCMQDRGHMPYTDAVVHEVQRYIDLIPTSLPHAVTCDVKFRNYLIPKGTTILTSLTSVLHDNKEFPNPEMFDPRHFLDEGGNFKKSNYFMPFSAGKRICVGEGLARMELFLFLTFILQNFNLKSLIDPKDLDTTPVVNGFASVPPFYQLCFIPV

[13] = tested on: H9c2; assay: cells; assay type: functional, cell-based; settings: Rattus norvegicus, H9c2, Myocardium;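 further: confirmatory concentration-response retest of ultra-high-throughput screening hits for modulation of myocardial damage; cell death induced by hydrogen peroxide oxidative stress; compound pretreatment for 60 min then peroxide exposure for 2 h; potency is for protecting the cells against peroxide damage rather than for killing them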

Compound: C[C@H]1CN([C@@H](C)CO)C(=O)c2cc(NC(=O)Cc3cn(C)c4ccccc34)ccc2O[C@H]1CN(C)Cc1ccc(Oc2ccccc2)cc1
- AC50 [1]: 6.34 µM (active)

Compound: CCOC(=O)c1c(NC(=O)CSc2c[nH]c3ccccc23)sc2c1CCCC2
- CC50 [2]: > 25 µM (active)

Compound: CC[N+](C)(CC)CC(=O)OCC1C(C)C=C(C)CC1C (stereo not drawn)
- IC50 [3]: 2.04 µM (active)
- IC50 [4]: 1.31 µM (active)

Compound: N#C/C(=C\c1c[nH]nc1-c1ccccc1)C(=O)NC1CCCCCC1
- AC50 [5]: inconclusive

Compound: Cc1cccc(C)c1OCC(=O)NCc1nnc(SCC(=O)NC2CCCCC2C)n1C (stereo not drawn)
- EC50 [6]: > 260 µM (inactive)
- IC50 [3]: 6.2 µM (active)
- IC50 [4]: 2.78 µM (active)

Compound: CC(C)C(NC(=O)c1ccc2c(c1)OCO2)C(=O)N/N=C\c1ccco1 (stereo not drawn)
- IC50 [3]: 15.9 µM (active)
- IC50 [4]: > 100 µM (inactive)

Compound: COc1ccc(Br)cc1/C=C/C(=O)Nc1c(C)cccc1C
- AC50 [5]: inconclusive
- AC50 [7]: 22.4 µM (inconclusive)

Compound: Cc1[nH]c(=O)c(C(=O)/C=C/c2ccccc2F)c2c1CCCC2
- AC50 [5]: inconclusive

Compound: CC[C@]12C=CCN3CCC4(c5cc(Br)c(OC)cc5N(C)C4[C@@](O)(C(=O)OC)[C@@H]1OC(C)=O)C32 (stereo partly drawn)
- IC50 [3]: 1.81 µM (active)
- IC50 [4]: 2.14 µM (active)

Compound: CC(C)(C)C(=O)NNC(=O)CCCOc1ccc(Cl)cc1Cl
- AC50 [5]: inconclusive
- AC50 [7]: 25.1 µM (inconclusive)

Compound: CCN(CC)CCN1C(=O)C(O)=C(C(=O)c2ccc(OC)cc2)C1c1cccs1 (stereo not drawn)
- AC50 [5]: inconclusive
- AC50 [8]: 17.8 µM (inconclusive)

Compound: O=C(NCCOc1ccccc1)c1nc[nH]n1
- IC50 [3]: 18.7 µM (active)
- IC50 [4]: 6.18 µM (active)

Compound: COc1cc(Nc2cccc[n+]2C)cc(OC)c1OC
- IC50 [3]: 2.85 µM (active)
- IC50 [4]: 3.48 µM (active)

Compound: C[C@H]1CN([C@@H](C)CO)C(=O)c2cc(NC(=O)Nc3ccc(C(F)(F)F)cc3)ccc2O[C@@H]1CN(C)Cc1ccc2c(c1)OCO2
- AC50 [1]: 4.02 µM (active)

Compound: O=C(O)CCCC[C@H]1CCSS1
- AC50 [5]: inconclusive

Compound: CCN(CC)S(=O)(=O)c1cc(C(=O)OC)ccc1Cl
- AC50 [5]: inconclusive

Compound: C[C@H](CO)N1C[C@H](C)[C@H](CN(C)S(=O)(=O)c2ccc(Cl)cc2)Oc2c(NC(=O)Nc3ccc(C(F)(F)F)cc3)cccc2C1=O
- AC50 [1]: 4.44 µM (active)

Compound: C[C@H]1CN([C@@H](C)CO)C(=O)c2cc(NC(=O)Nc3ccc(F)cc3)ccc2O[C@H]1CN(C)Cc1ccc(-c2ccccc2)cc1
- AC50 [1]: 3.74 µM (active)

Compound: Cc1c(C(=O)Nc2ccc(OCc3ccccc3)cc2)cccc1[N+](=O)[O-]
- AC50 [5]: inconclusive

Compound: CCN(CC)c1ccc2cc(C(=O)Nc3ccc4[nH]c(C(=O)N5C[C@@H](CCl)c6c5cc(OC(=O)Nc5ccccc5)c5[nH]cc(C)c65)cc4c3)oc2c1 [CARZELESIN]
- GI50 [9]: 259 µM (inactive)
- GI50 [10]: 0.00016 µM (active)
- GI50 [11]: 0.0838 nM (active)

Compound: C[C@@H]1CN([C@@H](C)CO)C(=O)c2cc(NS(=O)(=O)c3ccc(F)cc3)ccc2O[C@H]1CN(C)Cc1ccc(C(=O)Nc2ccccc2N)cc1
- AC50 [1]: 3.6 µM (active)

Compound: C[C@]12C=CC(=O)C=C1CC[C@@H]1[C@@H]2CC[C@]2(C)OC(=O)CC[C@@H]12 [TESTOLACTONE]
- GI50 [9]: 161 µM (inactive)
- GI50 [10]: 458 µM (inactive)
- GI50 [11]: 162000 nM (inactive)

Compound: COc1ccc(S(=O)(=O)Nc2ccc3c(c2)CC(=O)N([C@H](C)CO)C[C@@H](C)[C@@H](CN(C)Cc2ccc(Oc4ccccc4)cc2)O3)cc1
- AC50 [1]: 2.26 µM (active)

Compound: C=CCN1C(=O)/C(=C/c2ccc3c(c2)CCCN3CCC)C(=O)NC1=S
- CC50 [2]: 18.3 µM (active)

Compound: O=C1N[C@@H]([C@H]2CC[C@H](Cl)CN2)C(=O)N[C@H]1[C@H]1CC[C@H](Cl)CN1
- GI50 [9]: 0.318 µM (active)
- GI50 [10]: 1.02 µM (active)
- GI50 [11]: 327 nM (active)

Compound: O=C1OCc2cccc3cccc1c23
- AC50 [5]: inconclusive
- AC50 ([12]; read-out: AC50): 39.8 µM (inconclusive)

Compound: C[C@@H]1CN([C@H](C)CO)C(=O)Cc2cc(NS(=O)(=O)c3ccc(F)cc3)ccc2O[C@@H]1CN(C)S(=O)(=O)c1ccccc1
- AC50 [1]: 5.74 µM (active)

Compound: C[C@@H]1CN([C@H](C)CO)C(=O)Cc2cc(NC(=O)Nc3ccc(C(F)(F)F)cc3)ccc2O[C@@H]1CN(C)Cc1ccc(Oc2ccccc2)cc1
- AC50 [1]: 3.3 µM (active)

Compound: COCCN1Cc2cccc(C(=O)Nc3cccc(-c4nc5ccccc5[nH]4)c3)c2C1=O
- CC50 [2]: > 25 µM (active)
- IC50 [13]: > 79 µM (inactive)

Compound: C[C@H](CO)N1C[C@H](C)[C@H](CN(C)Cc2ccc(C(F)(F)F)cc2)Oc2ccc(NC(=O)Cc3cn(C)c4ccccc34)cc2C1=O
- AC50 [1]: 4.35 µM (active)

Compound: COC(=O)c1cccc(NC(=O)/C=C/c2cccc([N+](=O)[O-])c2)c1
- AC50 [5]: inconclusive
- AC50 ([12]; read-out: AC50): 5.01 µM (inconclusive)
- AC50 [7]: 2.24 µM (inconclusive)

Compound: C=CC[C@@H](CC(=O)N(CCO)Cc1ccccc1)C(=O)N[C@@H](COC(=O)[C@@H](CC=C)Cc1ccc(F)cc1)Cc1c[nH]c2ccccc12
- CC50 [2]: 18 µM (active)

Compound: COc1cccc(C2=CC(c3cc(OC)ccc3OC)n3nnnc3N2)c1 (stereo not drawn)
- CC50 [2]: 14.4 µM (active)

Compound: O=[N+]([O-])c1cc2ncc(-c3ccccc3)c(O)c2cc1/C(Cl)=C/c1ccccc1
- GI50 [9]: 4.53 µM (inactive)
- GI50 [10]: 9.08 µM (inactive)
- GI50 [11]: 7350 nM (inactive)

Compound: C[C@@H]1CN([C@H](C)CO)C(=O)Cc2cc(NC(=O)Nc3ccc4c(c3)OCO4)ccc2O[C@H]1CN(C)Cc1ccc(Oc2ccccc2)cc1
- AC50 [1]: 3.08 µM (active)

Compound: C[C@@H]1CN([C@H](C)CO)C(=O)c2cc(NS(=O)(=O)c3ccc(F)cc3)ccc2O[C@H]1CN(C)Cc1ccc(-c2ccccc2)cc1
- AC50 [1]: 5.77 µM (active)

Compound: O=C(NCCCCCCNC(=O)n1cc(F)c(=O)[nH]c1=O)NCCCOCCOCCCNC(=O)C(O)C(O)C(O)C(O)CO (stereo not drawn)
- GI50 [9]: 0.0822 µM (active)
- GI50 [10]: > 1.91 µM (inactive)
- GI50 [11]: 107 nM (active)

Compound: CNc1ccnc(-c2c(C)noc2C)n1
- AC50 [5]: inconclusive
- AC50 [8]: 39.8 µM (inconclusive)
- AC50 [12]: inconclusive

Compound: CCN(CC)CCNC(=O)c1ccc(NC(=O)C2CC(=O)N(c3ccc4c(c3)OCCO4)C2)cc1 (stereo not drawn)
- IC50 [3]: 8.16 µM (active)
- IC50 [4]: 7.53 µM (active)

Compound: C[C@H](CO)N1C[C@H](C)[C@H](CN(C)Cc2ccc(Cl)c(Cl)c2)Oc2c(NS(C)(=O)=O)cccc2C1=O
- AC50 [1]: 17.3 µM (active)

Compound: C[C@H]1CN([C@@H](C)CO)C(=O)c2cccc(N(C)C)c2O[C@H]1CN(C)Cc1ccc(C(=O)Nc2ccccc2N)cc1
- AC50 [1]: 4.84 µM (active)

Compound: CCN1C(NCCCCO)=N[C@@H](c2cccc(C(F)(F)F)c2)C(C(=O)OC)=C1C
- IC50 [3]: 2.44 µM (active)
- IC50 [4]: 2.59 µM (active)

Compound: C[C@@H]1CN([C@@H](C)CO)C(=O)Cc2cc(NC(=O)Nc3ccc(C(F)(F)F)cc3)ccc2O[C@@H]1CN(C)C(=O)Nc1ccc(C(F)(F)F)cc1
- AC50 [1]: 3.66 µM (active)

Compound: CN1CCC(N(C)S(=O)(=O)c2ccc(NC(=O)c3ccc(S(=O)(=O)N(C)C)cc3)cc2)CC1
- IC50 [3]: 16 µM (active)
- IC50 [4]: 13.9 µM (active)
